Assay results from ChEMBL document CHEMBL4706534, “1,2,3-Triazole-containing hybrids with potential antibacterial activity against methicillin-resistant Staphylococcus aureus (MRSA)” (Eur J Med Chem, 2020).
Converted amounts (≈) assume the structure as drawn.

Tests used:
[1] = test system: Staphylococcus aureus; assay: Antibacterial activity against Methicillin-resistant Staphylococcus aureus ATCC 33591; assay type: functional, organism-based
[2] = test system: Enterococcus faecalis; assay: Antibacterial activity against vancomycin susceptible Enterococcus faecalis ATCC 29212; assay type: functional
[3] = test system: Enterococcus; assay: Antibacterial activity against vancomycin resistant Enterococcus ATCC 51299; assay type: functional
[4] = test system: Staphylococcus aureus; assay: Antibacterial activity against methicillin-resistant Staphylococcus aureus ATCC 43300 incubated for 16 to 18 hrs by CLSI based assay; assay type: functional; settings: time 16-18 hrs
[5] = test system: Staphylococcus aureus; assay: Resistance index, ratio of MIC for antibacterial activity against Staphylococcus aureus ATCC 43300 incubated for 16 to 18 hrs by CLSI based assay to MIC for antibacterial activity against Staphylococcus aureus DSM 20231 incubated for 16 to 18 hrs by CLSI based assay; assay type: functional; settings: time 16-18 hrs
[6] = test system: Staphylococcus aureus; assay: Antibacterial activity against Methicillin-resistant Staphylococcus aureus N315 incubated for 24 hrs by two fold serial dilution method; assay type: functional
[7] = test system: Staphylococcus aureus; assay: Antibacterial activity against Staphylococcus aureus ATCC 25923 incubated for 24 hrs by two fold serial dilution method; assay type: functional
[8] = test system: Staphylococcus aureus; assay: Antibacterial activity against methicillin-sensitive Staphylococcus aureus ATCC 29213 by broth microdilution method; assay type: functional
[9] = test system: Staphylococcus aureus; assay: Antibacterial activity against methicillin-resistant Staphylococcus aureus ATCC 33591 by broth microdilution method; assay type: functional
[10] = test system: Staphylococcus aureus; assay: Antibacterial activity against Staphylococcus aureus ATCC 25923 by CLSI-based broth microdilution method; assay type: functional

CN[C@H](CC(C)C)C(=O)N[C@@H]1Cc2ccc(c(Cl)c2)Oc2cc3cc(c2O[C@@H]2O[C@H](CO)[C@@H](O)[C@H](O)[C@H]2O[C@H]2C[C@](C)(N)[C@H](O)[C@H](C)O2)Oc2ccc(cc2Cl)[C@@H](O)[C@@H]2NC(=O)[C@H](NC(=O)[C@@H]3NC(=O)[C@H](CC(=O)O)NC1=O)c1ccc(O)c(c1)-c1c(O)cc(O)cc1[C@H](C(=O)NCCCc1cn(CCOCCOCCOCCNC(=O)[C@@H]3NC(=O)[C@H]4NC(=O)[C@H](NC(=O)[C@@H]5NC(=O)[C@H](CC(=O)O)NC(=O)[C@H](NC(=O)[C@@H](CC(C)C)NC)Cc6ccc(c(Cl)c6)Oc6cc5cc(c6O[C@@H]5O[C@H](CO)[C@@H](O)[C@H](O)[C@H]5O[C@H]5C[C@](C)(N)[C@H](O)[C@H](C)O5)Oc5ccc(cc5Cl)[C@H]4O)c4ccc(O)c(c4)-c4c(O)cc(O)cc43)nn1)NC2=O was tested, and the MIC [1] was 0.5 µg/mL (≈ 0.16 µM), the MIC [2] was 0.5 µg/mL (≈ 0.16 µM) and the MIC [3] was 0.5 µg/mL (≈ 0.16 µM).

For N=C(N)NCCC[C@H](NC(=O)[C@H](Cc1c[nH]c2ccccc12)NC(=O)[C@H](CCCNC(=N)N)NC(=O)[C@H](Cc1c[nH]c2ccccc12)NC(=O)[C@@H](N)CCCNC(=N)N)C(=O)N[C@@H](Cc1c[nH]c2ccccc12)C(=O)N[C@@H](CCCCn1cc(COc2ccccc2)nn1)C(N)=O, the MIC [4] was 2.7 µM (≈ 3.59 µg/mL) and the Ratio [5] was 0.5.

For Cc1ccc2c(c1)nnn2CC(O)Cn1cnc2cc(Cl)ccc2c1=O (centres undefined), the MIC [6] was no less than 64 µg/mL and the MIC [7] was no less than 64 µg/mL.

Work on N=C(N)NCCC[C@H](NC(=O)[C@H](Cc1c[nH]c2ccccc12)NC(=O)[C@H](CCCNC(=N)N)NC(=O)[C@H](Cc1c[nH]c2ccccc12)NC(=O)[C@@H](N)CCCNC(=N)N)C(=O)N[C@@H](Cc1c[nH]c2ccccc12)C(=O)N[C@@H](CCCCn1cc(COc2cccc(OCc3cn(CCCC[C@H](NC(=O)[C@H](Cc4c[nH]c5ccccc45)NC(=O)[C@H](CCCNC(=N)N)NC(=O)[C@H](Cc4c[nH]c5ccccc45)NC(=O)[C@H](CCCNC(=N)N)NC(=O)[C@H](Cc4c[nH]c5ccccc45)NC(=O)[C@@H](N)CCCNC(=N)N)C(N)=O)nn3)c2)nn1)C(N)=O yielded an MIC [4] of 2.7 µM (≈ 6.97 µg/mL) and a Ratio [5] of 0.5.

CN[C@H](CC(C)C)C(=O)N[C@@H]1Cc2ccc(c(Cl)c2)Oc2cc3cc(c2O[C@@H]2O[C@H](CO)[C@@H](O)[C@H](O)[C@H]2O[C@H]2C[C@](C)(N)[C@H](O)[C@H](C)O2)Oc2ccc(cc2Cl)[C@@H](O)[C@@H]2NC(=O)[C@H](NC(=O)[C@@H]3NC(=O)[C@H](CC(=O)O)NC1=O)c1ccc(O)c(c1)-c1c(O)cc(O)cc1[C@H](C(=O)NCCCCc1cn(CCOCCOCCOCCNC(=O)[C@@H]3NC(=O)[C@H]4NC(=O)[C@H](NC(=O)[C@@H]5NC(=O)[C@H](CC(=O)O)NC(=O)[C@H](NC(=O)[C@@H](CC(C)C)NC)Cc6ccc(c(Cl)c6)Oc6cc5cc(c6O[C@@H]5O[C@H](CO)[C@@H](O)[C@H](O)[C@H]5O[C@H]5C[C@](C)(N)[C@H](O)[C@H](C)O5)Oc5ccc(cc5Cl)[C@H]4O)c4ccc(O)c(c4)-c4c(O)cc(O)cc43)nn1)NC2=O gave an MIC [1] of 0.5 µg/mL (≈ 0.159 µM), an MIC [2] of 0.5 µg/mL (≈ 0.159 µM) and an MIC [3] of 0.5 µg/mL (≈ 0.159 µM).

Cc1ccc2c(c1)nnn2CC(O)Cn1cnc2cc(F)ccc2c1=O (centres undefined) showed an MIC [6] of no less than 64 µg/mL and an MIC [7] of no less than 64 µg/mL.

Work on CC(=O)N[C@H]1[C@H](O[C@@H]2c3ccc(c(Cl)c3)Oc3cc4cc(c3O)Oc3ccc(cc3Cl)C[C@H]3NC(=O)[C@H](n5cc(CO[C@H]6[C@@H](OCc7ccccc7)[C@@H](COCc7ccccc7)O[C@@H](O[C@H]7[C@H](OCc8ccccc8)[C@@H](OCc8ccccc8)[C@H](Sc8ccccc8)O[C@@H]7COCc7ccccc7)[C@@H]6OCc6ccccc6)nn5)c5ccc(O)c(c5)Oc5cc(O)cc(c5)[C@H](NC3=O)C(=O)N[C@H]4C(=O)N[C@H]3C(=O)N[C@@H]2C(=O)N[C@@H](C(=O)O)c2cc(O)cc(O)c2-c2cc3ccc2O)O[C@H](CO)[C@@H](O)[C@@H]1O yielded an MIC [8] of 32 µg/mL (≈ 13.1 µM) and an MIC [9] of 32 µg/mL (≈ 13.1 µM).

N=C(N)NCCC[C@H](NC(=O)[C@H](Cc1c[nH]c2ccccc12)NC(=O)[C@H](CCCNC(=N)N)NC(=O)[C@H](Cc1c[nH]c2ccccc12)NC(=O)[C@@H](N)CCCNC(=N)N)C(=O)N[C@@H](Cc1c[nH]c2ccccc12)C(=O)N[C@@H](CCCCn1cc(COc2cc(OCc3cn(CCCC[C@H](NC(=O)[C@H](Cc4c[nH]c5ccccc45)NC(=O)[C@H](CCCNC(=N)N)NC(=O)[C@H](Cc4c[nH]c5ccccc45)NC(=O)[C@H](CCCNC(=N)N)NC(=O)[C@H](Cc4c[nH]c5ccccc45)NC(=O)[C@@H](N)CCCNC(=N)N)C(N)=O)nn3)cc(OCc3cn(CCCC[C@H](NC(=O)[C@H](Cc4c[nH]c5ccccc45)NC(=O)[C@H](CCCNC(=N)N)NC(=O)[C@H](Cc4c[nH]c5ccccc45)NC(=O)[C@H](CCCNC(=N)N)NC(=O)[C@H](Cc4c[nH]c5ccccc45)NC(=O)[C@@H](N)CCCNC(=N)N)C(N)=O)nn3)c2)nn1)C(N)=O gave an MIC [4] of 2.7 µM (≈ 10.4 µg/mL) and a Ratio [5] of 0.5.

Molecule CN[C@H](CC(C)C)C(=O)N[C@@H]1Cc2ccc(c(Cl)c2)Oc2cc3cc(c2O[C@@H]2O[C@H](CO)[C@@H](O)[C@H](O)[C@H]2O[C@H]2C[C@](C)(N)[C@H](O)[C@H](C)O2)Oc2ccc(cc2Cl)[C@@H](O)[C@@H]2NC(=O)[C@H](NC(=O)[C@@H]3NC(=O)[C@H](CC(=O)O)NC1=O)c1ccc(O)c(c1)-c1c(O)cc(O)cc1[C@H](C(=O)NCCCCCc1cn(CCOCCOCCOCCNC(=O)[C@@H]3NC(=O)[C@H]4NC(=O)[C@H](NC(=O)[C@@H]5NC(=O)[C@H](CC(=O)O)NC(=O)[C@H](NC(=O)[C@@H](CC(C)C)NC)Cc6ccc(c(Cl)c6)Oc6cc5cc(c6O[C@@H]5O[C@H](CO)[C@@H](O)[C@H](O)[C@H]5O[C@H]5C[C@](C)(N)[C@H](O)[C@H](C)O5)Oc5ccc(cc5Cl)[C@H]4O)c4ccc(O)c(c4)-c4c(O)cc(O)cc43)nn1)NC2=O has an MIC [1] of 0.5 µg/mL (≈ 0.158 µM), an MIC [2] of 0.5 µg/mL (≈ 0.158 µM) and an MIC [3] of 0.5 µg/mL (≈ 0.158 µM).

O=c1c2ccc(F)cc2ncn1CC(O)Cn1nnc2ccccc21 (centres undefined) showed an MIC [6] of no less than 64 µg/mL and an MIC [7] of no less than 64 µg/mL.

CC(=O)N[C@H]1[C@H](O[C@@H]2c3ccc(c(Cl)c3)Oc3cc4cc(c3O)Oc3ccc(cc3Cl)C[C@H]3NC(=O)[C@H](n5cc(COC[C@H]6O[C@@H]7OC(C)(C)O[C@@H]7[C@H]7OC(C)(C)O[C@H]76)nn5)c5ccc(O)c(c5)Oc5cc(O)cc(c5)[C@H](NC3=O)C(=O)N[C@H]4C(=O)N[C@H]3C(=O)N[C@@H]2C(=O)N[C@@H](C(=O)O)c2cc(O)cc(O)c2-c2cc3ccc2O)O[C@H](CO)[C@@H](O)[C@@H]1O gave an MIC [8] of 0.5 µg/mL (≈ 0.29 µM) and an MIC [9] of 0.5 µg/mL (≈ 0.29 µM).

CC1(C)S[C@@H]2[C@H](NC(=O)[C@H](N)c3ccccc3)C(=O)N2[C@H]1C(=O)O [AMPICILLIN] gave an MIC [10] of 4 µg/mL (≈ 11.4 µM).

In the case of CCCCCCCCOCc1cn([C@H]2C(=O)N[C@@H]3Cc4ccc(c(Cl)c4)Oc4cc5cc(c4O)Oc4ccc(cc4Cl)[C@@H](O[C@@H]4O[C@H](CO)[C@@H](O)[C@H](O)[C@H]4NC(C)=O)[C@@H]4NC(=O)[C@H](NC(=O)[C@@H]5NC(=O)[C@@H](NC3=O)c3cc(O)cc(c3)Oc3cc2ccc3O)c2ccc(O)c(c2)-c2c(O)cc(O)cc2[C@H](C(=O)O)NC4=O)nn1, the MIC [8] is reported as 0.5 µg/mL (≈ 0.313 µM) and the MIC [9] is reported as 0.5 µg/mL (≈ 0.313 µM).

CC(=O)N[C@H]1[C@H](O[C@@H]2c3ccc(c(Cl)c3)Oc3cc4cc(c3O)Oc3ccc(cc3Cl)C[C@H]3NC(=O)[C@H](n5cc(COc6ccccc6)nn5)c5ccc(O)c(c5)Oc5cc(O)cc(c5)[C@H](NC3=O)C(=O)N[C@H]4C(=O)N[C@H]3C(=O)N[C@@H]2C(=O)N[C@@H](C(=O)O)c2cc(O)cc(O)c2-c2cc3ccc2O)O[C@H](CO)[C@@H](O)[C@@H]1O gave an MIC [8] of 0.5 µg/mL (≈ 0.32 µM) and an MIC [9] of 0.5 µg/mL (≈ 0.32 µM).

For CN[C@H](CC(C)C)C(=O)N[C@@H]1Cc2ccc(c(Cl)c2)Oc2cc3cc(c2O[C@@H]2O[C@H](CO)[C@@H](O)[C@H](O)[C@H]2O[C@H]2C[C@](C)(N)[C@H](O)[C@H](C)O2)Oc2ccc(cc2Cl)[C@@H](O)[C@@H]2NC(=O)[C@H](NC(=O)[C@@H]3NC(=O)[C@H](CC(=O)O)NC1=O)c1ccc(O)c(c1)-c1c(O)cc(O)cc1[C@H](C(=O)NCCOCCOCCOCCn1cc(CCNC(=O)[C@@H]3NC(=O)[C@H]4NC(=O)[C@H](NC(=O)[C@@H]5NC(=O)[C@H](CC(=O)O)NC(=O)[C@H](NC(=O)[C@@H](CC(C)C)NC)Cc6ccc(c(Cl)c6)Oc6cc5cc(c6O[C@@H]5O[C@H](CO)[C@@H](O)[C@H](O)[C@H]5O[C@H]5C[C@](C)(N)[C@H](O)[C@H](C)O5)Oc5ccc(cc5Cl)[C@H]4O)c4ccc(O)c(c4)-c4c(O)cc(O)cc43)nn1)NC2=O, the MIC [1] was 0.5 µg/mL (≈ 0.16 µM), the MIC [2] was 0.5 µg/mL (≈ 0.16 µM) and the MIC [3] was 0.5 µg/mL (≈ 0.16 µM).

O=c1c2ccc(Cl)cc2ncn1CC(O)Cn1nnc2ccccc21 (centres undefined) gave an MIC [6] of no less than 64 µg/mL and an MIC [7] of no less than 64 µg/mL.

CCCCCCCCc1cn([C@H]2C(=O)N[C@@H]3Cc4ccc(c(Cl)c4)Oc4cc5cc(c4O)Oc4ccc(cc4Cl)[C@@H](O[C@@H]4O[C@H](CO)[C@@H](O)[C@H](O)[C@H]4NC(C)=O)[C@@H]4NC(=O)[C@H](NC(=O)[C@@H]5NC(=O)[C@@H](NC3=O)c3cc(O)cc(c3)Oc3cc2ccc3O)c2ccc(O)c(c2)-c2c(O)cc(O)cc2[C@H](C(=O)O)NC4=O)nn1 gave an MIC [8] of 0.16 µg/mL (≈ 0.102 µM) and an MIC [9] of 0.16 µg/mL (≈ 0.102 µM).

Molecule CC(=O)N[C@H]1[C@H](O[C@@H]2c3ccc(c(Cl)c3)Oc3cc4cc(c3O)Oc3ccc(cc3Cl)C[C@H]3NC(=O)[C@H](n5cc(COc6cccc7ccccc67)nn5)c5ccc(O)c(c5)Oc5cc(O)cc(c5)[C@H](NC3=O)C(=O)N[C@H]4C(=O)N[C@H]3C(=O)N[C@@H]2C(=O)N[C@@H](C(=O)O)c2cc(O)cc(O)c2-c2cc3ccc2O)O[C@H](CO)[C@@H](O)[C@@H]1O has an MIC [8] of 0.5 µg/mL (≈ 0.31 µM) and an MIC [9] of 0.5 µg/mL (≈ 0.31 µM).
